Data on 7 molecules can be found in US12595253B2, “Benzamides of pyrazolylamino-pyrimidinyl derivatives, and compositions and methods thereof” (LYNK PHARMACEUTICALS CO. LTD., priority 2019, dated 2026).

One may read the IC50 as the midpoint of a concentration-inhibition curve. A higher IC50 goes with weaker potency.

One data set deals with T1, CYP3A4 (Homo sapiens, UniProt P08684).
T1 construct: 0.2 mg/mL human liver microsomes was pre-incubated in 180 μL reaction mixture; from tissue; host or cells: pooled human liver microsomes
Kind of data set: CYPs inhibition in pooled human liver microsomes, probe substrate Midazolam. In kind it is in vitro ADME. As to the method:
(§1) The inhibitory potential of test articles in pooled human liver microsomes was evaluated by the method using a cocktail of CYP substrates. […] For the negative control well, the test articles was replaced with 20 μL reaction buffer. After 10 min of pre-incubation at 37° C., 20 μL 10 mM NADPH cofactor was added to the pre-reaction mixtures. After another 10 min incubation, the reaction was stopped by adding 400 μL of ice cold acetonitrile solution containing tolbutamide and labetalol served as internal standards. The incubation mixtures were centrifuged at 4000×g for 20 min, and then the supernatants were analyzed by LC-MS/MS after dilution. SigmaPlot was applied to plot % control activity versus the test compound concentrations, and for non-linear regression analysis of the data. IC50 values of test articles were determined using 3-parameter logistic equation.

The target in a further data set is T2, JAK2 (Homo sapiens, UniProt O60674).
T2 construct: purchased Carna Biosciences
Kind of data set: JAK2 microfluidic kinase assay (Caliper EZ Reader II, FAM labeled peptide substrate). Format: biochemical. In outline: (§2)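 Compounds, serially diluted 3-fold from 5 μM, were preincubated 10 min with enzyme at ambient temperature before reaction in HEPES/Brij35/MgCl2/DTT buffer (1% DMSO final), tuned to 10% peptide conversion. After EDTA stop, FAM-peptide phosphorylation was measured by Caliper EZ Reader II; IC50 fitted from percent-inhibition curves.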

Another data set concerns the target T3, CYP1A2 (Homo sapiens, UniProt P05177).
T3 construct: 0.2 mg/mL human liver microsomes was pre-incubated in 180 μL reaction mixture; from tissue; host or cells: pooled human liver microsomes
T3 sequence (P05177 1-516): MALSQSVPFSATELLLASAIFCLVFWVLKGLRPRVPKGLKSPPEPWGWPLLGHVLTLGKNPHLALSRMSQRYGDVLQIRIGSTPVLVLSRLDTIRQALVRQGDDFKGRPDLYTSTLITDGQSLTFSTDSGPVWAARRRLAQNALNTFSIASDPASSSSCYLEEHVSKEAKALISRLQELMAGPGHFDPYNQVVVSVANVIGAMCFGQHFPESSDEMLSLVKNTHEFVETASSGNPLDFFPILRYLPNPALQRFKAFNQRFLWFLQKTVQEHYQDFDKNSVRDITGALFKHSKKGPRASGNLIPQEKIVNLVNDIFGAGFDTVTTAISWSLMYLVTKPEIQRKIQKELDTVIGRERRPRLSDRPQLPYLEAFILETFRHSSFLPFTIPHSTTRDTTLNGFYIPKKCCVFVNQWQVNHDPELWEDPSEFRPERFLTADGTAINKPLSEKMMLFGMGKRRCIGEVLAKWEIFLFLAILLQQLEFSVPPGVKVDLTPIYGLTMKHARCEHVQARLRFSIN
Briefly: CYPs inhibition in pooled human liver microsomes, probe substrate Phenacetin. Format: in vitro ADME. The method, then:
as §1

The target in the next data set is T4, TYK2 (Homo sapiens, UniProt P29597).
T4 construct: purchased Carna Biosciences
Kind of data set: TYK2 microfluidic kinase assay (Caliper EZ Reader II, FAM labeled peptide substrate). In kind it is biochemical. In outline:
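First, serially diluted compounds (top 5 μM, 3-fold steps, 1% DMSO final) sit with enzyme 10 min at ambient temperature. Then the kinase reaction runs in HEPES buffer with 10 mM MgCl2 for 120, 20, 30 or 10 min (JAK1, JAK2, JAK2V617F, TYK2). Finally 50 mM EDTA quenches it.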

Data set [1] can be described thus: Liver microsomes study, Phase I stability (RLM). The conditions noted are these: pH 7.4; rat liver microsomes 0.5 mg/mL, 1 μM test article; read-out: RLM Clint. In kind it is in vitro ADME, rat. The essentials:
(§3)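 Phase I turnover was followed by LC/MS/MS of parent compound remaining at 0, 10, 30 and 90 min in NADPH-fortified rat or human microsomes, with cold acetonitrile quench. Half-life and intrinsic clearance were derived from the log-linear depletion slope and the inverse protein concentration.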
A general note: Liver microsomes are a subcellular fraction often used to study metabolism.

For the next data set, the target named is T5, CYP2C19 (Homo sapiens, UniProt P33261).
T5 construct: 0.2 mg/mL human liver microsomes was pre-incubated in 180 μL reaction mixture; from tissue; host or cells: pooled human liver microsomes
Kind of data set: CYPs inhibition in pooled human liver microsomes, probe substrate S-mephenytoin. Format: in vitro ADME. As to the method: as §1

A further data set addresses T6, JAK1 (Homo sapiens, UniProt P23458).
T6 construct: purchased Carna Biosciences
Kind of data set: JAK1 microfluidic kinase assay (Caliper EZ Reader II, FAM labeled peptide substrate). Format: biochemical. The essentials: as §2

In the next data set the target is T7, CYP2C9 (Homo sapiens, UniProt P11712).
T7 construct: 0.2 mg/mL human liver microsomes was pre-incubated in 180 μL reaction mixture; from tissue; host or cells: pooled human liver microsomes
Briefly: CYPs inhibition in pooled human liver microsomes, probe substrate Diclofenac. Format: in vitro ADME. As to the method: as §1

The nature of data set [2]: Liver microsomes study, Phase I stability (HLM). Format: in vitro ADME, human. Particulars: pH 7.4; human liver microsomes 0.5 mg/mL, 1 μM test article; read-out: HLM Clint. The essentials:
as §3

In another data set the target is T8, CYP2D6 (Homo sapiens, UniProt P10635).
T8 construct: 0.2 mg/mL human liver microsomes was pre-incubated in 180 μL reaction mixture; from tissue; host or cells: pooled human liver microsomes
Kind of data set: CYPs inhibition in pooled human liver microsomes, probe substrate Dextromethorphan. In kind it is in vitro ADME. The method, then: as §1

The target of a further data set is T9, JAK2V617F (Homo sapiens, UniProt O60674, V617F).
T9 construct: purchased Carna Biosciences
Briefly: JAK2V617F microfluidic kinase assay (Caliper EZ Reader II, FAM labeled peptide substrate). Format: biochemical. The conditions noted are these: JAK2V617F 2.5 nM, 1 mM ATP. In outline:
as §2

Where [3] appears, read: IC50 JAK2 ([…]) (1 mM ATP), 1 mM ATP.
Where [4] appears, read: IC50 JAK2 ([…]) (Km ATP), Km ATP.
[5] abbreviates: IC50 JAK1 (10 nM) (Km ATP), JAK1 10 nM, Km ATP.
The mark [6] stands for this setting: IC50 TYK2 ([…]) (1 mM ATP), TYK2 […], 1 mM ATP.
The mark [7] stands for this setting: IC50 JAK1 (5 nM) (1 m MATP), JAK1 5 nM, 1 mM ATP.

T5 sequence (P33261 whole entry): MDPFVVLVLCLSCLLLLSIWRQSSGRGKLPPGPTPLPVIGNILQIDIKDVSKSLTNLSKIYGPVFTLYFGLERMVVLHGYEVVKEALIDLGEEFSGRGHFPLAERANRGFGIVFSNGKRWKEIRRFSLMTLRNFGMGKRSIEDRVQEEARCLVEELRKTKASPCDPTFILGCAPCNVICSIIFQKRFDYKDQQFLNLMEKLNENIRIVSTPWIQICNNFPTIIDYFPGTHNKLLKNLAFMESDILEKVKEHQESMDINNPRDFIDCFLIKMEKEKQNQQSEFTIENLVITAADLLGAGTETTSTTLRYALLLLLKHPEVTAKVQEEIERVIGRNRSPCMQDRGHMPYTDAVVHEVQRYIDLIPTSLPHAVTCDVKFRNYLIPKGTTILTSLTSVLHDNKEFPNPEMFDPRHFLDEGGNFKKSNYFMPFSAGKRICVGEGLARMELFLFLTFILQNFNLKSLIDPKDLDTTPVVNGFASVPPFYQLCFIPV
T8 sequence (P10635 whole entry): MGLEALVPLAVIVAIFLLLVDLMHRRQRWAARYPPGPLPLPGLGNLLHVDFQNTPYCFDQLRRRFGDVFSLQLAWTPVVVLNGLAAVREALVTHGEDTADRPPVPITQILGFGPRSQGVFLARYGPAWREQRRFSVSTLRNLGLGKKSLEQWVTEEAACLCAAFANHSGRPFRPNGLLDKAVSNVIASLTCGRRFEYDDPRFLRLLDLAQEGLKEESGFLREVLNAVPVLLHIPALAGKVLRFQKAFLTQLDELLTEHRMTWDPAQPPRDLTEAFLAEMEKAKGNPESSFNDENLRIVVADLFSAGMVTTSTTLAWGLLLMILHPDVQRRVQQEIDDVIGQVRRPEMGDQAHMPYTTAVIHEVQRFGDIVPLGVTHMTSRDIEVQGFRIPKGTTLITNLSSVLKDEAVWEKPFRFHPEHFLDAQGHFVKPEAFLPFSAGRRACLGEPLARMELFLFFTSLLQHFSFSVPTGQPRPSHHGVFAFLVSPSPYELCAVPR
T6 sequence (P23458 whole entry): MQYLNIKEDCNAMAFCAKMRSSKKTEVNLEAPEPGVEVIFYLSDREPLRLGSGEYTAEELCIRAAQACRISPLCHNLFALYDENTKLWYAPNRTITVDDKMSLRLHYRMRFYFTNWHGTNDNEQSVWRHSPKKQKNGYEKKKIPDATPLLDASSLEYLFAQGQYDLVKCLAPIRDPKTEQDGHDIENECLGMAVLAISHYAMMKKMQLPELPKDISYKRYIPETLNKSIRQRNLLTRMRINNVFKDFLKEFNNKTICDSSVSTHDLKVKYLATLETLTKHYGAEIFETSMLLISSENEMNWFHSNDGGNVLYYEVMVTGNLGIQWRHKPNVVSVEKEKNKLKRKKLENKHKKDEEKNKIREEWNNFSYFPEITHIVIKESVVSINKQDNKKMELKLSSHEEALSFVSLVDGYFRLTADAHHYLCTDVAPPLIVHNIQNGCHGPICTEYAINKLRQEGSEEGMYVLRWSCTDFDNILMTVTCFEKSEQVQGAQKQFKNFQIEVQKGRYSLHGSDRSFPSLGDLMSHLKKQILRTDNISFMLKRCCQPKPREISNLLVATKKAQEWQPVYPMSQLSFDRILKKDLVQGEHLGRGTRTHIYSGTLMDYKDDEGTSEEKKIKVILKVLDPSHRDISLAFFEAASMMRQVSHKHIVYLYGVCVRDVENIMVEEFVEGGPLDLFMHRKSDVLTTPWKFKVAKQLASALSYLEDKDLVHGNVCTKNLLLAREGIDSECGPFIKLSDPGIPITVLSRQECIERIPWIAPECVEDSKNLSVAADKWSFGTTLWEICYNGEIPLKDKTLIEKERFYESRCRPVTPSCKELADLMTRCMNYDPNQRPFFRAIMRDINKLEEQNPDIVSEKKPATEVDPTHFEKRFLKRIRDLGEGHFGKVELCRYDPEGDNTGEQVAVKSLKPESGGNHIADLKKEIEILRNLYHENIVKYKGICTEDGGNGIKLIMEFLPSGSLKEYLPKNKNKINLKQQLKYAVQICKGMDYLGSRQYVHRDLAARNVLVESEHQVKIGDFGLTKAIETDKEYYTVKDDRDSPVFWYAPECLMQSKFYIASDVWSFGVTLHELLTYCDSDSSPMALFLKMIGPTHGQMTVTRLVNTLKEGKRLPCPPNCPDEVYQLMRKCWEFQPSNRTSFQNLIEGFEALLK
T2 sequence (O60674 whole entry): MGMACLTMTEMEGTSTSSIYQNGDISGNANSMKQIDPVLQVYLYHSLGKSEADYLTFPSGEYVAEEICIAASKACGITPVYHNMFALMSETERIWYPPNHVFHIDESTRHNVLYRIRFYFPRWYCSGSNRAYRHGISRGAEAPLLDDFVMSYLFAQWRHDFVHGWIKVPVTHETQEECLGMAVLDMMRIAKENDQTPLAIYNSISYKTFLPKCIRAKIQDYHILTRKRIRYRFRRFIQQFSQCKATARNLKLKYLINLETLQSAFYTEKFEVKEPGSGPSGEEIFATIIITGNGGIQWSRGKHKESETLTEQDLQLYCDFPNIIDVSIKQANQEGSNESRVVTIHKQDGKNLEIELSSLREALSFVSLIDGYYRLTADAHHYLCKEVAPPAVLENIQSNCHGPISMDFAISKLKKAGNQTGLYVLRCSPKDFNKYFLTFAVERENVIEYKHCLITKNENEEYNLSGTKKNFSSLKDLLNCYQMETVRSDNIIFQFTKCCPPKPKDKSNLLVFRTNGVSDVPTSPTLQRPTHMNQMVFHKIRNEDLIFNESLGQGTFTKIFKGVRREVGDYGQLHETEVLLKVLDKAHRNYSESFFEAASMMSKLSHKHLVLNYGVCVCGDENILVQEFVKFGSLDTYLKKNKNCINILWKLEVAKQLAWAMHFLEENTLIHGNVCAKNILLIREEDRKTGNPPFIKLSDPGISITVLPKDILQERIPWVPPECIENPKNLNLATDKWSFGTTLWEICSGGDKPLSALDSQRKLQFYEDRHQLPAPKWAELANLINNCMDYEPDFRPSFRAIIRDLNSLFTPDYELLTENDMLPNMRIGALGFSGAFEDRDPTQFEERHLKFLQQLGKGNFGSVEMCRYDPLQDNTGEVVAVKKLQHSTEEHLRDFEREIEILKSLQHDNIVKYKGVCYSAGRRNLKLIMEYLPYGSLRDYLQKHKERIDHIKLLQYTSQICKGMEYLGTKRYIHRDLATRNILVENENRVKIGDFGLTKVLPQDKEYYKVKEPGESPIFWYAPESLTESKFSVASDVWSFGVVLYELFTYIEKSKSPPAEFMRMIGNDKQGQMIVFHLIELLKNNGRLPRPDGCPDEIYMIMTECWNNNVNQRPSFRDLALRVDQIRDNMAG
T9 sequence (O60674 whole entry V617F): as the sequence (O60674 whole entry) above, with V617F counted along it
T7 sequence (P11712 whole entry): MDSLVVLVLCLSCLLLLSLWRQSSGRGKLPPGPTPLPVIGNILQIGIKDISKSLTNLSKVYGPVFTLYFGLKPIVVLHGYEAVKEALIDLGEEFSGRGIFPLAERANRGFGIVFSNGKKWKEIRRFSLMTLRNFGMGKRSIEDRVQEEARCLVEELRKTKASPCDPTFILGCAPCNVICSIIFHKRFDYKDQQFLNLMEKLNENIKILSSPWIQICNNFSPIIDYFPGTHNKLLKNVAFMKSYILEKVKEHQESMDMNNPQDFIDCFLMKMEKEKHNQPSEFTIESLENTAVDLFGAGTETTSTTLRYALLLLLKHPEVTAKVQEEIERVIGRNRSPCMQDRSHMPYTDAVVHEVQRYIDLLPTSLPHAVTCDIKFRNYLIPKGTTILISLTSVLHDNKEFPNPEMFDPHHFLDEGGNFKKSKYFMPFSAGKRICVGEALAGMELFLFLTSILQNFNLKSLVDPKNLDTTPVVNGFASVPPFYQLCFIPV
T4 sequence (P29597 whole entry): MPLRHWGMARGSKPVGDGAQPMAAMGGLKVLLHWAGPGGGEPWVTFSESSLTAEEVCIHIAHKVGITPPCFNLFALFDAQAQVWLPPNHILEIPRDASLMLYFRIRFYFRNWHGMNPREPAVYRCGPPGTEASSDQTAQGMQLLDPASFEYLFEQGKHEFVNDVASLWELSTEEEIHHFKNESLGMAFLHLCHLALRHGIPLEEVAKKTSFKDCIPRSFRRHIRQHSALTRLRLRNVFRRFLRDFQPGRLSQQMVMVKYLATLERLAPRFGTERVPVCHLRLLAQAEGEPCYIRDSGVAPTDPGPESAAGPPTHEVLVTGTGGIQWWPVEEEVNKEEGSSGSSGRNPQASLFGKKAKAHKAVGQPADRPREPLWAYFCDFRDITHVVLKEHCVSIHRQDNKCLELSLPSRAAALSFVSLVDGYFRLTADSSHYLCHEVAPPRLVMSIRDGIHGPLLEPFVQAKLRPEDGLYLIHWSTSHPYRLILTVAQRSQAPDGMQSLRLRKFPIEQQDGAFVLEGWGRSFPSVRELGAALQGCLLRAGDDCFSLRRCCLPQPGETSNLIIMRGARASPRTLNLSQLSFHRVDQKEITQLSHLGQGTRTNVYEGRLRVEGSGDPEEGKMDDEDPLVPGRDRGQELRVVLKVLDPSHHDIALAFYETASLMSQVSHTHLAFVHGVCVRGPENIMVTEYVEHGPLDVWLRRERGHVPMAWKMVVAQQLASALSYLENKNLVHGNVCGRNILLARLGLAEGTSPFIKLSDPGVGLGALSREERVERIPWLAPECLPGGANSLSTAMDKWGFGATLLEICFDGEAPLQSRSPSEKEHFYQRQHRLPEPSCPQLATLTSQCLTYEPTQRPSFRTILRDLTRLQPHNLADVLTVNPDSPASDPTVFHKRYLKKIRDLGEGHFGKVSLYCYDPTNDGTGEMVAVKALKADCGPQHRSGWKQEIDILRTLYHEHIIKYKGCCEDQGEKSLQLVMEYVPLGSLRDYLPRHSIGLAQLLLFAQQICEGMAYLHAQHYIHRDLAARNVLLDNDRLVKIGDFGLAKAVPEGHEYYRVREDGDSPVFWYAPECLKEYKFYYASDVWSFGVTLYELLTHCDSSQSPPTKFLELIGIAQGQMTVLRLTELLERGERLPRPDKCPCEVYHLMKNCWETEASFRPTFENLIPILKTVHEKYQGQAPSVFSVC

For the molecule `Cc1cnc(Nc2cnn(C3CCN(CC#N)CC3)c2)nc1-c1ccc(C(=O)NCC#N)cc1` [Example 1, N-(Cyanomethyl)-4-(2-((1-(1-(cyanomethyl)piperidin-4-yl)-1H-pyrazol-4-yl)amino)-5-methylpyrimidin-4-yl)benzamide], the IC50 against CYP3A4 is over 50000 nM; against JAK2 (setting [3]), 1.34 nM; against JAK2 (setting [4]) it was 0.42 nM; on CYP1A2 it was over 50000 nM; against TYK2 (IC50 TYK2 (10 nM) (Km ATP), TYK2 10 nM, Km ATP) it was 0.84 nM; against CYP2C19, over 50000 nM. In addition, the IC50 on JAK1 (setting [5]) was 1.79 nM; against CYP2C9 it was over 50000 nM; against CYP2D6, over 50000 nM; on JAK2V617F, 37.8 nM. The microsomal CLint at 1 μM in [1] came out at 15 µL/min/mg; in data set [2], 14.9 µL/min/mg.
With `Cc1cnc(Nc2cnn(C3CCN(CC(F)F)CC3)c2)nc1-c1ccc(C(=O)NCC#N)cc1` [Example 19, N-(Cyanomethyl)-4-(2-((1-(1-(2,2-difluoroethyl)piperidin-4-yl)-1H-pyrazol-4-yl)amino)-5-methylpyrimidin-4-yl)benzamide], the IC50 on CYP3A4 was over 50000 nM; on JAK2 (setting [4]) it was 0.65 nM; at CYP1A2, over 50000 nM; at CYP2C19 it was over 50000 nM; on JAK1 (setting [5]) it was 1.92 nM; against CYP2C9, over 50000 nM. This molecule gave an IC50 against CYP2D6 of over 50000 nM. Further, the figures for the microsomal CLint at 1 μM in data set [1] and in [2] were 49.2 µL/min/mg and 33.7 µL/min/mg, respectively.
As to `CC(=O)N1CCC(n2cc(Nc3ncc(C)c(-c4ccc(C(=O)NCC#N)cc4)n3)cn2)CC1` [Example 20, 4-(2-((1-(1-Acetylpiperidin-4-yl)-1H-pyrazol-4-yl)amino)-5-methylpyrimidin-4-yl)-N-(cyanomethyl)benzamide], the IC50 at CYP3A4 was over 50000 nM; on JAK2 (setting [3]), 0.3 nM; against JAK2 (setting [4]), 0.25 nM; against CYP1A2, over 50000 nM; on CYP2C19, over 50000 nM; on CYP2C9 it was over 50000 nM. The IC50 on CYP2D6 is over 50000 nM; at JAK2V617F, 13.7 nM. Besides, the microsomal CLint at 1 μM in data set [1] and in data set [2] was under 9.6 µL/min/mg in each case.
For `Cc1cnc(Nc2cnn(C3CCN(C)CC3)c2)nc1-c1ccc(C(=O)N[C@@H](C)C#N)cc1` [Example 48, (S)—N-(1-cyanoethyl)-4-(5-methyl-2-((1-(1-methylpiperidin-4-yl)-1H-pyrazol-4-yl)amino)pyrimidin-4-yl)benzamide], the IC50 against CYP3A4 is over 50000 nM; against JAK2 (setting [3]), 1.02 nM; at CYP1A2 it was over 50000 nM; at TYK2 (setting [6]), 10.6 nM; against CYP2C19, over 50000 nM; on JAK1 (setting [7]), 3.83 nM. Besides, the IC50 against CYP2C9 was over 50000 nM; on CYP2D6, over 50000 nM; at JAK2V617F it was 31.7 nM. Besides, the microsomal CLint at 1 μM in [1] was found to be 34.5 µL/min/mg; in data set [2], 4.64 µL/min/mg.
Turning to `CC[C@@H](C#N)NC(=O)c1ccc(-c2nc(Nc3cnn(C4CCN(C)CC4)c3)ncc2Cl)cc1` [Example 88, (S)-4-(5-chloro-2-((1-(1-methylpiperidin-4-yl)-1H-pyrazol-4-yl)amino)pyrimidin-4-yl)-N-(1-cyanopropyl)benzamide], the IC50 is 32100 nM on CYP3A4; 0.61 nM at JAK2 (setting [3]); over 50000 nM against CYP1A2; 6.68 nM against TYK2 (setting [6]); 24000 nM on CYP2C19; 0.82 nM on JAK1 (setting [7]). In addition, the IC50 at CYP2C9 was found to be 45300 nM; at CYP2D6 it was 41900 nM; at JAK2V617F it was 2.42 nM. In addition, the figures for the microsomal CLint at 1 μM in data set [1] and in data set [2] were 221 µL/min/mg and 22.8 µL/min/mg, respectively.
For the molecule `CC[C@@H](C#N)NC(=O)c1ccc(-c2nc(Nc3cnn(CCO)c3)ncc2Cl)cc1` [Example 167, (S)-4-(5-Chloro-2-((1-(2-hydroxyethyl)-1H-pyrazol-4-yl)amino)pyrimidin-4-yl)-N-(1-cyanopropyl)benzamide], the IC50 against CYP3A4 was over 50000 nM; against JAK2 (setting [3]) it was 4.4 nM; against CYP1A2 it was over 50000 nM; on TYK2 (setting [6]), 2.64 nM; at CYP2C19 it was over 50000 nM; against JAK1 (setting [7]), 1.2 nM. The IC50 at CYP2C9 amounted to 38100 nM; at CYP2D6 it was 37800 nM. The microsomal CLint at 1 μM in [1] is 14.4 µL/min/mg; in data set [2], 7.06 µL/min/mg.
In the case of `CC[C@@H](C#N)NC(=O)c1ccc(-c2nc(Nc3cnn(CCO)c3)ncc2C)cc1` [Example 172, (S)—N-(1-cyanopropyl)-4-(2-((1-(2-hydroxyethyl)-1H-pyrazol-4-yl)amino)-5-methylpyrimidin-4-yl)benzamide], the IC50 against CYP3A4 is over 50000 nM; against JAK2 (setting [3]), 24.6 nM; against CYP1A2, over 50000 nM; against TYK2 (setting [6]), 1.74 nM; at CYP2C19, over 50000 nM; against JAK1 (setting [7]), 1.93 nM. For the same molecule, the IC50 against CYP2C9 and against CYP2D6 was over 50000 nM throughout. The results for the microsomal CLint at 1 μM in data set [1] and in data set [2] were 14.8 µL/min/mg and 5.05 µL/min/mg, respectively.
